In patent publication US20070072815A1, “Methods and kits to increase the efficiency of oligonucleotide-directed nucleic acid sequence alteration” (priority 2004, published 2007):
Entries after “also recorded” stand apart in the source; their conditions may differ.

Assays:
[1] = tested on: mutant eGFP gene in DLD-1-1 cells; experiment: eGFP gene correction (oligonucleotide-directed sequence alteration) in DLD-1-1 cells, FACS readout; type: cell-based
Method: Cell line and culture conditions: DLD-1 cells are obtained from ATCC (American Type Cell Culture, Manassas, Va.). DLD-1 integrated clone 1 (DLD-1-1) is obtained by integration of the vector pEGFP-N3 containing a single point mutation (TAG) in the eGFP gene, as described in copending U.S. patent application Ser. No. 10/986,418, filed Nov. 10, 2004 (“Mammalian Cell Lines for Detecting, Monitoring, and Optimizing Oligonucleotide-Mediated Chromosomal Sequence Alteration”). Cells are grown in RPMI 1640 medium with 2 mM glutamine, 4.5 g/L glucose, 10 mM HEPES, 1 mM sodium pyruvate and supplemented with 10% FBS. Cells are maintained at 5% CO2, 37° C. and under selection in 200 μg/ml G418 (Gibco, Invitrogen Co., Carlsbad, Calif.).
eGFP gene correction: Cells grown in complete medium supplemented with 10% FBS are trypsinized and harvested by centrifugation. The cell pellet is resuspended in serum-free medium at a density of 1×10^6 cells/100 μl and transferred to a 4 mm gap cuvette (Fisher Scientific, Pittsburgh, Pa.). The oligonucleotide is then added at a concentration of 4 μM and the cells are electroporated (LV, 250V, 13 msec, 2 pulses, 1 second interval) using a BTX ECM830 apparatus (BTX, Holliston, Mass.). The cells are then transferred to a 60 mm dish containing fresh medium supplemented with 10% FBS and incubated for 48 hrs at 37° C. before harvesting for FACS analysis.
The percentage of converted cells in a whole population is then calculated by CellQuest™ (Becton Dickinson) and GFP/PI programs. The correction efficiency is determined by dividing the number of eGFP positive cells by the number of cells analyzed in each experiment (usually 50,000 cells). Each clone is tested three times to determine the standard deviation of the correction efficiency, with standard deviation calculated using Microsoft Excel.
The experimental strategy involves the introduction of oligonucleotides into DLD-1-clone 1 cells by electroporation followed by phenotypic readout of the corrected eGFP gene, 48 hours later. The correcting oligonucleotide (EGFP3S/72NT) is 72 bases in length (72-mer), complementary to the non-transcribed strand of the mutant eGFP gene but designed to create a single mismatch in the third base of codon 67 (see FIG. 1A). It directs conversion of a TAG→TAC codon which enables phenotypic expression of eGFP, which can be detected by FACS. FIG. 1B outlines the sequence of the target gene, the 72-mer and a nonspecific 74-mer used as a control.
Oligonucleotide-Directed Sequence Alteration: The resulting synchronized populations of cells, and asynchronous controls, are grown in complete medium supplemented with 10% FBS and trypsinzed and harvested by centrifugation at 1500 rpm for 5 minutes. The cell pellet is resuspended in fresh serum-free medium at a density of 2×10^6 cells/100 μl. The entire cell suspension is mixed with 20 μg of EGFP/72NT and transferred into a 4 mm gap cuvette (Fisher Scientific, Pittsburgh, Pa., USA) followed by electroporation with two 250V pulses, each 13 ms in duration, with one second between pulses, unipolar.
Cells are incubated at room temperature for 30 min. […] Frequency of converted cells are calculated by CellQuest™ and GFP/PI programs.
Double Thymidine Block: Cells are synchronized in G1 or at the G1/S border by a double thymidine block. Twenty-four hours prior to the addition of any agent (HU, etc.), cells are plated at a density of 0.5×10^6 cells per 100 mm dish, followed by incubation in 2 mM thymidine (Sigma) for 16 hrs, washed and released in fresh medium for 10 hrs, then incubated in 2 mM thymidine for an additional 15 hrs.
FACS is then used to analyze 50,000 cells from each population to determine the percentage of cells expressing functional eGFP, as described in Example 1.

[2] = tested on: α-galactosidase A (GLA) activity in Fabry's cell line DMN-1; experiment: GLA activity in Fabry's cells after ODSA; type: cell-based, human
Source text: Cell line DMN-1, a human fibroblast cell line derived from a human patient with Fabry's disease, is obtained from the National Institutes of Health (NIH). These cells are used to measure the efficiency of correction of a mutant allele of α-galactosidase A (GLA) using methods of the present invention. The specific disease-causing mutation in the Fabry's cell line used herein is A143P, caused by a G→C mutation in the gene. See Branton et al., Medicine (Baltimore) (2002) 81(2): 122-38.
All four oligonucleotides are used to effect ODSA substantially as described in Example 1, with the exception that cells are transfected with oligonucleotides, rather than electroporated. Oligos are added at 5 μg, 10 μg or 30 μg per reaction. After ODSA is performed, cells are cultured and assayed for GLA activity according to the method of Brady, as described in Medin et al., Proc. Natl. Acad. Sci. (USA) (1996) 93:7917-22, the disclosure of which is incorporated herein by reference in its entirety. The GLA activity is used as a measure of gene correction by comparing the activities in treated versus untreated cultures. The correction efficiency is subsequently confirmed by sequencing of the locus of mutation in a number of treated cells.
[…] Unlike the experiments involving correction of eGFP in DLD-1-1 cells described in Example 1, however, certain of the agents (VPA, caffeine, TSA) in the experiments in this example are not added before transfection, but are instead added only after transfection, during the recovery period.
The means of introducing oligonucleotide into the target cells also differs from previous examples, with transfection in the presence of the transfection enhancing agent FuGENE™ 6 (FG) (Roche Diagnostics Corp., Indianapolis, Ind., USA) being used rather than electroporation. Each transfection reaction includes 100 μl of target cells and 12 μl of FG unless otherwise indicated, despite the fact that FG is not explicitly listed for each datapoint in the relevant figures. Otherwise the procedures used in the DLD-1-1 experiments and the Fabry's experiments are similar.
The results of a further series of experiments are shown at FIG. 15D, where the data are presented as GLA activity as nanomolar (nM) concentration of the product of the GLA assay generated per hour per unit protein concentration (as are the data in FIGS. D and E).

[3] = tested on: homologous recombination (HR); conditions: via inhibition of ATM kinase / p53 ser-15 phosphorylation; cited from earlier work

In the case of `Cn1c(=O)c2c(ncn2C)n(C)c1=O` [caffeine], the “effect on correction efficiency, recovery phase” value ([1]; 4 mM caffeine after electroporation, up to 48 hrs) was “dramatically increases correction efficiency; also recorded: stimulates correction; also recorded: the greater the enhancement of correction efficiency”, the “effect on MMS-enhanced correction” value ([1]; 4 mM caffeine in addition to 0.2 μM MMS) was “completely suppressing the enhancement otherwise caused by MMS” and the “effect on correction efficiency” value ([1]; 4 mM caffeine pre-treatment, with or without 0.2 μM MMS) was “lower than the control experiment; also recorded: ineffective at increasing the efficiency of gene repair”. For the same molecule, the “effect on correction efficiency, pretreatment” value ([1]; 4 mM caffeine prior to electroporation) was “decreases correction efficiency; also recorded: inhibits oligonucleotide-directed gene correction; also recorded: reduction in basal repair levels”, the correction levels ([1]; caffeine added to ddC-treated cells, pretreatment (FIG. 20)) was 0.6% and the “effect on ddC-stimulated gene repair” value ([1]; inhibitor added with ddC before electroporation (FIG. 20)) was “blocks the stimulation in gene repair caused by ddC treatment; also recorded: knocks down correction induced by ddC”. For the same molecule, the “effect on GLA activity” value ([2]; synchronized cells treated with 0.3 mM HU, 4 mM caffeine during recovery period) was “modest effect on GLA activity”, the “effect on ddC-enhanced GLA activity” value ([2]; synchronized cells, 500 μM ddC, 4 mM caffeine or 100 ng/ml TSA during recovery period) was “eliminate the ability of 500 μM ddC to enhance GLA activity” and the “reduction of the level of HR” value [3] was 60-90%.
